Legend:
[1] = biological target: wild type PRC2 (wtPRC2) complex (Homo sapiens (Human), UniProt Q15910); assay: EZH2 LC-MS assay (LC-Qualified); format: biochemical; conditions: (a) LC-Qualified assay
Method: Representative compounds of the invention were serially and separately diluted 3-fold in DMSO to obtain twelve concentrations. […] Solutions (6 μL) of 80 nM wild type PRC2 (wtPRC2) complex and 60 μM SAM in reaction buffer (20 mM Tris, pH 8.0, 0.1% BSA, 0.01% Triton, 0.5 mM DTT) were added to the wells that were then incubated with the test compound for 20 min. A 6 μL solution of 3 μM of the substrate peptide H3K27me1 (histone H3[21-44]-K27me1-biotin) and 6 μM regulatory peptide H3K27me3 (histone H3[21-44]-K27me3) in reaction buffer was added to initiate each reaction. […] The data were fit to a dose response equation using the program Helios to get the IC50 values of the test compound.

EZH2 = EZH2 (Homo sapiens (Human), UniProt Q15910); assay: ELISA (H3K27 methylation) assay in G401 cell; format: cell-based; conditions: (b) ELISA Qualified assay, 48 h
Sequence of EZH2 (Q15910 whole entry): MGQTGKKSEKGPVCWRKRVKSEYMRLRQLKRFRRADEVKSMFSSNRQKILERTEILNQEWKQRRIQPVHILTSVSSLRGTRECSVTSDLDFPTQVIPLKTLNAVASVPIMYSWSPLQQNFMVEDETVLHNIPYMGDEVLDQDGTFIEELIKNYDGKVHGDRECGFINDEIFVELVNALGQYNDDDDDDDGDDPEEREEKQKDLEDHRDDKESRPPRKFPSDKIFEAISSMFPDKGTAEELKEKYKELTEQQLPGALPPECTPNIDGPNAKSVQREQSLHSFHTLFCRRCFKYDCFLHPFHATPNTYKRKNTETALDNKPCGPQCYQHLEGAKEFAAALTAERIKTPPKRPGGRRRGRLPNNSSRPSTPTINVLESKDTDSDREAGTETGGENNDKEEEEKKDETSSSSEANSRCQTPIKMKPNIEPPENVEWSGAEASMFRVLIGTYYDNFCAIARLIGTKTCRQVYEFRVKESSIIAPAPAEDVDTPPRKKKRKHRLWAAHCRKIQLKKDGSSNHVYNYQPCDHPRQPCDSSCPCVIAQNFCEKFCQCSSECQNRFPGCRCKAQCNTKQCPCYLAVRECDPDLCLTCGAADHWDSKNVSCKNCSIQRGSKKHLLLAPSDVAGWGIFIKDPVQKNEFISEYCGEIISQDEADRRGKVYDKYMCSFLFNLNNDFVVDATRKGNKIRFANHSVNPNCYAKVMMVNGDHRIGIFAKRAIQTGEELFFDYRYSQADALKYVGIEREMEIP
Sequence of EZH2 (Q15022 whole entry partner): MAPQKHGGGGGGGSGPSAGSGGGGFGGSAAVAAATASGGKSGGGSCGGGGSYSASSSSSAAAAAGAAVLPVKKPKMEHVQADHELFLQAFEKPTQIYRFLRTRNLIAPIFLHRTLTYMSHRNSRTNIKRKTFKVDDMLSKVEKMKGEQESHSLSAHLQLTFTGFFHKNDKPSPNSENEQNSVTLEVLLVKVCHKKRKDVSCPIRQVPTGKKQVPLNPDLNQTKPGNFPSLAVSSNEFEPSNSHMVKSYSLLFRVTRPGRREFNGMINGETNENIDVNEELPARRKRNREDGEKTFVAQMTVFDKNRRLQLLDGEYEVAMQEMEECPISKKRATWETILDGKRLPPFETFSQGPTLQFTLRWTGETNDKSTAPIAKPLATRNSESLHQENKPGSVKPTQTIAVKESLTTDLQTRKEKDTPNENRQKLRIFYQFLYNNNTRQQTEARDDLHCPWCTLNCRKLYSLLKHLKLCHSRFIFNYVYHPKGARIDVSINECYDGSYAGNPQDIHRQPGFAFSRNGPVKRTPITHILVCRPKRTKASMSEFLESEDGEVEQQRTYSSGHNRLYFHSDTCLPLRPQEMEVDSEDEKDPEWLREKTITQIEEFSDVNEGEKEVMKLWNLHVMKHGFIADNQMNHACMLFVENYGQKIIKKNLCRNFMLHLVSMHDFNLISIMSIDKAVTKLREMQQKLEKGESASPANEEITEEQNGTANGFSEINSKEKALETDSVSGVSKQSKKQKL
Sequence of EZH2 (O75530 whole entry partner): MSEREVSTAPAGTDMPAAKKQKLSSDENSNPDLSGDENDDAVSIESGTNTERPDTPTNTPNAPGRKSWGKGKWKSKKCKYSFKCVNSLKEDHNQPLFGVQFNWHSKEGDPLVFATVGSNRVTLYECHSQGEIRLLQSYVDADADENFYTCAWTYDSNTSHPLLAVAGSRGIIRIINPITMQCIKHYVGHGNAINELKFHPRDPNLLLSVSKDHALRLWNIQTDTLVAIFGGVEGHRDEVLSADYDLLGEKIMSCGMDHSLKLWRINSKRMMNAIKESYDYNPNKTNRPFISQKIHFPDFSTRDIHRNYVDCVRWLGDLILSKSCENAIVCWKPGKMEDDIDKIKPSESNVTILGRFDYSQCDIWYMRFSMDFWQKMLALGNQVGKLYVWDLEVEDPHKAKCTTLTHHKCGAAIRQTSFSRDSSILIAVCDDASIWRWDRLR
Sequence of EZH2 (Q09028 whole entry partner): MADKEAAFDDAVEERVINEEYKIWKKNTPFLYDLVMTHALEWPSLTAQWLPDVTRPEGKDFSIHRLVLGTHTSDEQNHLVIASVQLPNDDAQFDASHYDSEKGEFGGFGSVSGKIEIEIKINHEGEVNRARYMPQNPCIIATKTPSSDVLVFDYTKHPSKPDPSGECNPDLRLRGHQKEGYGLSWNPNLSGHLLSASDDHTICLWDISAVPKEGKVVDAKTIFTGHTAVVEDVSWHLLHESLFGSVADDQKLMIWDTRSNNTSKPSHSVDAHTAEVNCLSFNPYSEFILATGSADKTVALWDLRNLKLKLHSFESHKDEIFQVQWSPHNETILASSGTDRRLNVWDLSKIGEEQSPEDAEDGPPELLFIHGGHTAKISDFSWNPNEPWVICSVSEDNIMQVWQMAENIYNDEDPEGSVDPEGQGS
Method: Representative compounds of the invention were serially and separately diluted 3-fold in DO to obtain a total of eight or twelve concentrations. Then the compounds were added to G401 cell cultured in 384-well plate at 1:500 dilution to obtain the highest concentration of 20 μM. The cells were further cultured for 48 h before ELISA procedure.
ELISA protocol: Cell lysates were transferred to the wells of a 384-well plate and the final volume was adjusted to 50 μL per well with PBS. The plate was sealed, centrifuged at 2,000 rpm for 2 min and incubated at 4° C. for about 16 h. The plate was washed with TBST buffer (1×TBS (10×TBS: 24.2 g Tris (Sigma, T6066), 80 g NaCl (Sigma, S3014) to 1 L of water and adjust pH to 7.6 with HCl) with 0.1% Tween-20). Blocking buffer (TBST, 5% BSA; 50 μL per well) was added and the plate was incubated for 1 h at rt. The blocking buffer was removed and primary antibody was added (30 μL per well). […] The primary antibody was incubated in the plate at rt for 1 h. The wells were washed with TBST and incubated with secondary antibody for 1 h at rt.
After 1 h of incubation at rt, the wells were washed with TBST. […] The signal was read using a PerkinElmer Envision Reader. The H3K27 methylation readouts were normalized using H3 signal and then percentage inhibition was calculated against the samples treated with DO. The data were fit to a dose response curve using the program Helios to get the IC50 values of the test compound.

Sequence of wild type PRC2 (wtPRC2) complex (Q15910 whole entry): as the sequence (Q15910 whole entry) above
Sequence of wild type PRC2 (wtPRC2) complex (Q15022 whole entry partner): as the sequence (Q15022 whole entry partner) above
Sequence of wild type PRC2 (wtPRC2) complex (O75530 whole entry partner): as the sequence (O75530 whole entry partner) above
Sequence of wild type PRC2 (wtPRC2) complex (Q09028 whole entry partner): as the sequence (Q09028 whole entry partner) above
Sequence of wild type PRC2 (wtPRC2) complex (Q6ZN18 whole entry partner): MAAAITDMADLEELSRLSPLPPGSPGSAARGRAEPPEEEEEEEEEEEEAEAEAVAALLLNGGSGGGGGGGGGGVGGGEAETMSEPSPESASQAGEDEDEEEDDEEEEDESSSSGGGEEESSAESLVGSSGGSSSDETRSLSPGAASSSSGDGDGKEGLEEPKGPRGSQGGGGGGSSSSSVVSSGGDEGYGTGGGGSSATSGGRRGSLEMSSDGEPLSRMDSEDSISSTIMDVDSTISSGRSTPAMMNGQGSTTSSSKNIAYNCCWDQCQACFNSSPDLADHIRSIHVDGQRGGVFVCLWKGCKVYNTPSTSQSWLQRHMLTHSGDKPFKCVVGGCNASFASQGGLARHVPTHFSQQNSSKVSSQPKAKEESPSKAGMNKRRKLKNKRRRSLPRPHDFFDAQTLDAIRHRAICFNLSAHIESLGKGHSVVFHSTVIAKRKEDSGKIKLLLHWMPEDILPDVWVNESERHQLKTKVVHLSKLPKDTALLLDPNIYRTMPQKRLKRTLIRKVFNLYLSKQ

| Compound | IC50 [1] [µM] | IC50 (EZH2) [µM] |
| --- | --- | --- |
| O=C(c1cnc(NC[C@H]2CC[C@H](Nc3ccc4ccnc(Cl)c4n3)CC2)nc1)N1CCNCC1 [Compound C24, (2-((((1,4-trans)-4-((8-chloro-1,7-naphthyridin-2-yl)amino)cyclohexyl)methyl)amino)pyrimidin-5-yl)(piperazin-1-yl)methanone] | 0.112 | 0.296 |
| O=C(NC1COC1)c1cnc(NC[C@H]2CC[C@H](Nc3ccc4ccnc(Cl)c4n3)CC2)nc1 [Compound C25, 2-((((1,4-trans)-4-((8-chloro-1,7-naphthyridin-2-yl)amino)cyclohexyl)methyl)amino)-N-(oxetan-3-yl)pyrimidine-5-carboxamide] | 0.023 | 0.285 |
| CS(=O)(=O)N1CCN(Cc2cnc(NC[C@H]3CC[C@H](Nc4ccc5ccnc(Cl)c5n4)CC3)nc2)CC1 [Compound C26, 8-chloro-N-((1,4-trans)-4-(((5-((4-(methylsulfonyl)piperazin-1-yl)methyl)pyrimidin-2-yl)amino)methyl)cyclohexyl)-1,7-naphthyridin-2-amine] | 0.012 | 0.006 |
| OC1CN(Cc2cnc(NC[C@H]3CC[C@H](Nc4ccc5ccnc(Cl)c5n4)CC3)nc2)C1 [Compound C29, 1-((2-((((1,4-trans)-4-((8-chloro-1,7-naphthyridin-2-yl)amino)cyclohexyl)methyl)amino)pyrimidin-5-yl)methyl)azetidin-3-ol] | 0.02 | 0.022 |
| O=S1(=O)CCN(Cc2cnc(NC[C@H]3CC[C@H](Nc4ccc5ccnc(Cl)c5n4)CC3)nc2)CC1 [Compound C30, 4-((2-((((1,4-trans)-4-((8-chloro-1,7-naphthyridin-2-yl)amino)cyclohexyl)methyl)amino)pyrimidin-5-yl)methyl)thiomorpholine 1,1-dioxide] | 0.017 | 0.007 |
| Clc1nccc2ccc(N[C@H]3CC[C@H](CNc4ncc(CNCC5COC5)cn4)CC3)nc12 [Compound C31, 8-chloro-N-((1,4-trans)-4-(((5-(((oxetan-3-ylmethyl)amino)methyl)pyrimidin-2-yl)amino)methyl)cyclohexyl)-1,7-naphthyridin-2-amine] | 0.026 | 0.06 |
| COC1CC(NCc2cnc(NC[C@H]3CC[C@H](Nc4ccc5ccnc(Cl)c5n4)CC3)nc2)C1 (stereo partly drawn) [Compound C32, 8-chloro-N-((1,4-trans)-4-(((5-(((3-methoxycyclobutyl)amino)methyl)pyrimidin-2-yl)amino)methyl)cyclohexyl)-1,7-naphthyridin-2-amine] | 0.079 | 0.498 |
| OC1CC(NCc2cnc(NC[C@H]3CC[C@H](Nc4ccc5ccnc(Cl)c5n4)CC3)nc2)C1 (stereo partly drawn) [Compound C33, 3-(((2-((((1,4-trans)-4-((8-chloro-1,7-naphthyridin-2-yl)amino)cyclohexyl)methyl)amino)pyrimidin-5-yl)methyl)amino)cyclobutan-1-ol] | 0.042 | 0.044 |
| O=C(Cc1cnc(NC[C@H]2CC[C@H](Nc3ccc4ccnc(Cl)c4n3)CC2)nc1)N1CC(O)C1 [Compound C38, 2-(2-((((1,4-trans)-4-((8-chloro-1,7-naphthyridin-2-yl)amino)cyclohexyl)methyl)amino)pyrimidin-5-yl)-1-(3-hydroxyazetidin-1-yl)ethan-1-one] | 0.024 | 0.029 |
| CN(C)C1CCN(C(=O)Cc2cnc(NC[C@H]3CC[C@H](Nc4ccc5ccnc(Cl)c5n4)CC3)nc2)C1 (stereo partly drawn) [Compound C39, 2-(2-((((1,4-trans)-4-((8-chloro-1,7-naphthyridin-2-yl)amino)cyclohexyl)methyl)amino)pyrimidin-5-yl)-1-(3-(dimethylamino)pyrrolidin-1-yl)ethan-1-one] | 0.081 | 0.02 |
| O=C(Cc1cnc(NC[C@H]2CC[C@H](Nc3ccc4ccnc(Cl)c4n3)CC2)nc1)N1CCN(CCO)CC1 [Compound C40, 2-(2-((((1,4-trans)-4-((8-chloro-1,7-naphthyridin-2-yl)amino)cyclohexyl)methyl)amino)pyrimidin-5-yl)-1-(4-(2-hydroxyethyl)piperazin-1-yl)ethan-1-one] | 0.046 | 0.028 |
| O=C(Cc1cnc(NC[C@H]2CC[C@H](Nc3ccc4ccnc(Cl)c4n3)CC2)nc1)N1CCNCC1 [Compound C41, 2-(2-((((1,4-trans)-4-((8-chloro-1,7-naphthyridin-2-yl)amino)cyclohexyl)methyl)amino)pyrimidin-5-yl)-1-(piperazin-1-yl)ethan-1-one] | 0.035 | 0.031 |
| CN1CCN(C(=O)Cc2cnc(NC[C@H]3CC[C@H](Nc4ccc5ccnc(Cl)c5n4)CC3)nc2)CC1 [Compound C43, 2-(2-((((1,4-trans)-4-((8-chloro-1,7-naphthyridin-2-yl)amino)cyclohexyl)methyl)amino)pyrimidin-5-yl)-1-(4-methylpiperazin-1-yl)ethan-1-one] | 0.057 | 0.067 |
| O=C(Cc1cnc(NC[C@H]2CC[C@H](Nc3ccc4ccnc(Cl)c4n3)CC2)nc1)NC1CCC1 [Compound C44, 2-(2-((((1,4-trans)-4-((8-chloro-1,7-naphthyridin-2-yl)amino)cyclohexyl)methyl)amino)pyrimidin-5-yl)-N-cyclobutylacetamide] | 0.054 | 0.163 |
| OCCc1cnc(NC[C@H]2CC[C@H](Nc3ccc4ccnc(Cl)c4n3)CC2)nc1 [Compound C46, 2-(2-((((1,4-trans)-4-((8-chloro-1,7-naphthyridin-2-yl)amino)cyclohexyl)methyl)amino)pyrimidin-5-yl)ethan-1-ol] | 0.012 | 0.013 |
| CC1(NCCc2cnc(NC[C@H]3CC[C@H](Nc4ccc5ccnc(Cl)c5n4)CC3)nc2)COC1 [Compound C47, 8-chloro-N-((1,4-trans)-4-(((5-(2-((3-methyloxetan-3-yl)amino)ethyl)pyrimidin-2-yl)amino)methyl)cyclohexyl)-1,7-naphthyridin-2-amine] | 0.051 | 0.032 |
| Clc1nccc2ccc(N[C@H]3CC[C@H](CNc4ncc(CCNC5COC5)cn4)CC3)nc12 [Compound C48, 8-chloro-N-((1,4-trans)-4-(((5-(2-(oxetan-3-ylamino)ethyl)pyrimidin-2-yl)amino)methyl)cyclohexyl)-1,7-naphthyridin-2-amine] | 0.039 | 0.027 |
| CCN(CCC#N)C(=O)Cc1cnc(NC[C@H]2CC[C@H](Nc3ccc4ccnc(Cl)c4n3)CC2)nc1 [Compound C50, 2-(2-((((1,4-trans)-4-((8-chloro-1,7-naphthyridin-2-yl)amino)cyclohexyl)methyl)amino)pyrimidin-5-yl)-N-(2-cyanoethyl)-N-ethylacetamide] | 0.023 | 0.027 |
| O=C(NCc1cnc(NC[C@H]2CC[C@H](Nc3ccc4ccnc(Cl)c4n3)CC2)nc1)C1CCN1 (stereo partly drawn) [Compound C58, N-((2-((((1,4-trans)-4-((8-chloro-1,7-naphthyridin-2-yl)amino)cyclohexyl)methyl)amino)pyrimidin-5-yl)methyl)azetidine-2-carboxamide] | 0.038 | 0.117 |
| O=C(NCc1cnc(NC[C@H]2CC[C@H](Nc3ccc4ccnc(Cl)c4n3)CC2)nc1)C1COC1 [Compound C59, N-((2-((((1,4-trans)-4-((8-chloro-1,7-naphthyridin-2-yl)amino)cyclohexyl)methyl)amino)pyrimidin-5-yl)methyl)oxetane-3-carboxamide] | 0.045 | 0.033 |

Source: US12544374B2, “AZA-quinoline compounds and uses thereof” (Novartis AG, priority 2019, dated 2026)
